The source of these data is paper doi:10.1101/2020.04.16.044321v1 (biorxiv, 2020).

This assay has as its target hemopexin (Homo sapiens, UniProt P02790). Put plainly: biochemical.

hemopexin, sequence (P02790 24-462): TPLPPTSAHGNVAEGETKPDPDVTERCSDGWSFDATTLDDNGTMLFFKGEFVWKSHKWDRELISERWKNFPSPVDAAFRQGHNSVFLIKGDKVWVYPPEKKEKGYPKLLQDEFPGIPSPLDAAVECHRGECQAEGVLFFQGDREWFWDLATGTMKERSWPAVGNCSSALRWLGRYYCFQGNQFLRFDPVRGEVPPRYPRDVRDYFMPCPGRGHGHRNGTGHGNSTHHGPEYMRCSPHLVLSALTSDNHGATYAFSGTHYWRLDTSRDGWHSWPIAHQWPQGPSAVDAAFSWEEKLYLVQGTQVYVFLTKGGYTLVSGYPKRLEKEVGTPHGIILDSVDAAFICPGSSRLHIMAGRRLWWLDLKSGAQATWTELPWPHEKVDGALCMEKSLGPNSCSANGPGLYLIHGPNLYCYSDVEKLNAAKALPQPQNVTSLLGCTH

Consider `C=CC1=C(C)C2=Cc3c(C=C)c(C)c4[n]3[Fe+][n]3c(c(C)c(CCC(=O)O)c3=CC3=NC(=C4)C(C)=C3CCC(=O)O)=CC1=N2` [heme], for which the dissociation constant (Kd) was found to be 0.32 ± 0.04 nM.

In general, Kd refers to the equilibrium constant for the complex coming apart. Higher therefore signals lower affinity.
